Laboratory results taken from US6627601B2, “Neuroprotective peptides and uses thereof” (Protarga, Inc., priority 1998, dated 2003).
Like-named read-outs stand apart in the source and are kept apart here.

Experiments:
[1] = system: rat brain hippocampal cells; assay: glutamate induced neurotoxicity in hippocampal neuron cultures; format: cell-based; settings: 3 days of culture
Experimental: The effect of the neuroprotective peptides was tested on rat brain hippocampal cells. Rat brain hippocampi were isolated by dissection of 18 day old rat fetuses. […] The cultures were then incubated for 30 min at 37° C. after which glutamate was added at the concentrations indicated. Cells were counted after 3 days of culture; healthy cells and total cells were counted.

[2] = fura-2 calcium chelation assay in cells loaded with fura-2 and calcium; format: cell-based
Experimental: Any of the foregoing peptides can be tested for calcium binding by well known assays of calcium chelation (see, e.g. Cornell-Bell et al., Science 247:470-473, 1990; Cornell-Bell et al., Cell Calcium 12:185-204, 1991). For example, one preferred method employs the calcium sensitive dye fura-2 to measure the chelation of calcium by the isolated peptides. In such an assay, cells are loaded with fura-2 and calcium. […] An isolated peptide then is added to the cells and the diminution of fura-2 fluorescence is determined. Dose response experiments can be performed to determine the concentration at which the isolated peptide completely eliminates fura-2 fluorescence. For example, the isolated peptide of SEQ ID NO:4 completely eliminates fura-2 fluorescence at a concentration of 1 pg/ml in the cell culture medium.
Peptides, including variant peptides, can be tested for retention for any of the foregoing properties. For example, the peptides can be tested for in vitro properties initially to determine which of the variant peptides retain the ability to bind calcium ions and/or stimulate the expression of transcription factors. In vitro assays of calcium binding include contacting the peptide with an environment which contains calcium, such as a cell preloaded with calcium and a fluorescent calcium-sensitive dye, and determining the calcium binding of the peptide Peptides which retain one or more of these properties can then be used in in vivo assays of neuroprotection such as the Mongolian gerbil assay described below. Neuroprotective peptides or their variants which are conjugated to targeting compounds, labels, blood-brain barrier carriers and the like can be tested for retention of neuroprotective activity as well as for the activity of the conjugated compound (e.g., appropriate targeting, detectable labeling, ability to cross the blood-brain barrier, etc.).

[3] = system: NF-IL6 transcription factor; assay: EMSA of NF-IL6 in nuclear extracts of neuroblastoma cultures; format: cell-based, mouse
Experimental: (§1) It was determined that NMI 9236 can turn on specific genes related to neuronal growth in neuroblastoma tissue culture experiments.
(§2) The activation of specific transcription factors was assayed using an electrophoretic mobility shift assay (EMSA, for review see: Kerr, Meth. Enzymol 254:619-632, 1995). Nuclear extracts were prepared from stimulated neuroblastoma cell cultures (10^7 cells/sample) using classical nuclear extraction protocols (Dignam et al., Nucl. Acids Res. 11: 1475-1489, 1983; Prywes and Roeder, Cell 47: 777-784, 1986). A 0.5 pmol aliquot of a synthetic ^32P labeled oligomer duplex (with a sequence known to bind a specific transcription factor, see Table 2) was mixed with 3 μg of nuclear extract protein, and the mixture incubated at room temperature for 20 minutes. Subsequent electrophoresis under non-denaturing conditions through 4% polyacrylamide gels were used to separate and resolve the high MW protein/DNA complexes (transcription factor/DNA oligomer duplex) form low MW uncomplexed DNA oligomers. Autoradiography was used to visualize and quantify the complexes formed (see FIG. 6).
Identification of the observed band as NF-IL6 ([…]) was based on its electrophoretic migration, as well as antibody studies (data not shown).

[4] = system: AP-1 transcription factor; assay: EMSA of AP-1 in nuclear extracts of neuroblastoma cultures; format: cell-based, mouse
Experimental: as §1, §2
Using the electrophoretic mobility shift assay (EMSA) we tested for changes in concentration of transcription factors AP-1 and NF-IL6 in neuroblastoma nuclei as a function of stimulation by peptide NMI-9236. These two factors are well known to function in cell proliferation and differentiation, and to be activated by protein kinase-C. […] Identification of the two observed bands as Jun/Fos heterodimers and Jun/Jun homodimers was based on their electrophoretic migration, as well as antibody studies (data not shown).

[5] = system: CA1 and CA3 hippocampal neurons; assay: histological cell density/survival of hippocampal neurons in gerbil brains after forebrain ischemia; format: in vivo, male Mongolian gerbil
Experimental: At the time of the sacrifice, each animal was deeply anesthetized and perfused transcardially with heparinized saline followed by paraformaldehyde (4%) in phosphate buffered saline. After fixation the brains were placed in 30% sucrose for 3 days, embedded in glutaraldehyde-gelatin, cut frozen into 30μ serial sections for morphometric analysis, and stained with cresyl violet. The cell densities per 1000 microns2 were determined by computer assisted counting of grey level images at 300× viewed through an Axioplan microscope. It was determined that a maximum of 62% of the hippocampal pyramidal cells survived the ischemia in the presence of NMI 9236 as compared to 4% survival for the control saline non-drug treated animals. All analyses were carried out blind.
At 8 days post surgery the gerbils were sacrificed, perfusion fixed with formalin, and each perfused brain was embedded in glutaraldehyde-gelatin. About 300 serial sections (40 microns thick) were cut from each frozen brain, and stained with cresyl violet. Cell morphometric analysis was carried out on one out of every 10 sections by computer-assisted cell density counting of grey level images viewed at 300× through an Axioplan microscope. Focused camera input (Sony CCD) from the microscope to the IBS video screen of the Zeiss IBAS/KONTRON Image analysis system was normalized and segmented before assessing cell number. The average cell density present per a 1000 micron^2 region of the CA1 and CA3 pyramidal cell layers for the left and right side of each were determined. The analysis was carried out blind.

neurons = settings: compared with 68 kilodalton parent protein; Shashoua et al., 1992; cited from earlier work
[6] = system: gerbil model for ischemic stroke (5 minute bilateral carotid occlusion); assay: general locomotor activity (GLA) of gerbils after forebrain ischemia; format: in vivo, male Mongolian gerbil
Text: The gerbil (male Mongolian) has been widely used as an experimental model for studies of ischemic stroke because the brain blood supply is controlled by only two common carotid arteries. This unusual feature occurs in gerbils because they have an incomplete circle of Willis (Chandler et al., J. Pharmacol. Methods 14:137-146, 1985; Finkelstein et al., Restor. Neurol. Neurosci. 1:387-394, 1990; Levine and Sohn, Arch. Pathol. 87:315-317, 1969; Kahn, Neurology 22:510-515, 1972). A five minute bilateral carotid occlusion results in neuronal cell death that is predominantly localized in the CA1 subfield of the hippocampus. The CA1 neurons degenerate and virtually disappear by 7-8 days after ischemia (Akira, Res. in Immunol. 143:734-736 1992; Crain et al., Neurosci. 27:387-402, 1988). In addition, the gerbil model has the advantage that within one day after ischemia the animals increase by 100% to 200% their general locomotor activity. This readily measurable change can persist for at least eight days in most of the experimental animals (Akira, 1992; Kuroiwa et al., Neurosci. Lett. 122:141-144, 1991; Ohno et al., Eur. J Pharmacol. 193:357-361, 1991; Phillis, Brain Res. Bull. 23:467-470, 1989).
Male Mongolian gerbils were anesthetized with a mixture of isoflurane and oxygen using an inhalation apparatus (Stoelting Instrument Co.). An incision was made in the ventral neck and the common carotid arteries were isolated and occluded completely for a period of 5 minutes using microaneurysm clips. Next, the clips were removed and the incision sutured. The anesthesia was continued until the end of the i.v. injection and infusion period. Mean arterial blood pressure was monitored by a polyethylene catheter implanted in the left or right femoral […] during surgery. […]
GLA measurements were carried out in half hour sessions using the Stoelting Electronic Activity monitor (Shashoua et al., J. Med. Chem. 27:654-659, 1984; Jacob et al., J. Med. Chem. 30:1573-1576, 1987). Each gerbil's activity level was first assessed on days 3 and 1 prior to the experimental ischemia procedure to obtain a base line GLA data, then on days 1, 2, 5, and 7 after the carotid artery occlusion to determine efficacy of drug treatment. […]
Male Mongolian gerbils were anesthetized with a mixture of halothane and oxygen in Phase 1 of surgery and a cannula (an Alzet No. 2002 pump) was implanted subcutaneously in the midscapular region beneath the skin of the animal. […] All surgical procedures were carried out with a strict control of the temperature of each animal; rectal temperatures were monitored and heat was supplied via a temperature regulated heating pad. […]

[7] = NB2a mouse neuroblastoma cultures, 5-50 μg/ml
[8] = neuroblastoma cells treated for 20 hours
[9] = 1 mg/kg i.v. @ 1 hr post ischemia, day 8, n=3
[10] = 2 mM glutamate + 12 μg/ml peptide
[11] = 2 mM glutamate + 18 μg/ml peptide

N[C@@H](CCC(=O)O)C(=O)O [glutamate, reference compound]
% healthy ([1]; 1 mM glutamate alone): 51.5% | Healthy cells ([1]; 1 mM glutamate alone): 35 | Total cells ([1]; 1 mM glutamate alone): 68 | % healthy ([1]; 2 mM glutamate alone): 40.8% | Healthy cells ([1]; 2 mM glutamate alone): 62 | Total cells ([1]; 2 mM glutamate alone): 156

D-F-A-I-D-A-P-E (DFAIDAPE) [SEQ ID NO:10]
calcium chelation (in words) [2]: chelate calcium as tightly as the peptide of SEQ ID NO:3 | calcium chelation effectiveness relative to peptide of SEQ ID NO:4 ([2]; fura-2 fluorescence): about half as effective as the peptide of SEQ ID NO:4 | calcium chelation (in words) ([2]; listed as SEQ ID NO: 10): chelates calcium

K-K-D-G-D-G-D-F-A-I-D-A-P-E (KKDGDGDFAIDAPE) [NMI 9236, 14 amino acid peptide]
NF-IL6 activation, densitometric scan of the EMSA ([3]; 1 μg/ml, in comparison to control): 3-5 fold | activation of NF-IL6 relative to control ([3]; 30 min): less pronounced | level of NF-IL6 in the nuclei of the cells [3, 7]: increase | activation of NF-IL6 relative to control [3, 8]: strong activation | activation of NF-IL6 relative to control ([3]; serum-free medium, 20 hours): very strong activation | AP-1 activation, densitometric scans of the EMSA [4]: 3-5 fold | activation of AP-1 relative to control ([4]; 30 min): less pronounced | level of AP-1 in the nuclei of the cells [4, 7]: increase | activation of AP-1 relative to control [4, 8]: strong activation | activation of AP-1 relative to control ([4]; serum-free medium, 20 hours): very strong activation | Cell Density CA1-Hippocampal field [5, 9]: 13.3 ± 0.82 number of cells/1000 microns^2 | Cell Density CA3-Hippocampal field [5, 9]: 8.82 ± 0.42 number of cells/1000 microns^2 | neuronal loss in CA1/CA3 versus sham operated controls (in words) ([5]; 1 mg/kg i.v. bolus at 1 hr post ischemia): essentially all the cells remained intact | survival of L-CA1 neurons ([5]; icv into left lateral ventricle, 8 days post-ischemia, left side): 52±12% | survival of R-CA1 neurons ([5]; icv into left lateral ventricle, 8 days post-ischemia, right (unprotected) side): 4±2% | L-CA1 cell density as % of level of sham operated control brain ([5]; icv, 8 days post surgery): about 50% | L-CA1 cell density count ([5]; icv, 8 days post surgery, saline controls 0.6): 6.2 per 1000 micron^2 | R-CA1 cell density ([5]; icv, 8 days post surgery, stated comparable to saline controls): ~0.6 per 1000 micron^2 | maximum survival of hippocampal pyramidal cells after ischemia ([5]; in the presence of NMI 9236, 4% for control saline animals): ≤ 62% | concentration at which the peptide completely eliminates fura-2 fluorescence ([2]; in the cell culture medium): 1 pg/mL | % healthy [1, 10]: 92% | Healthy cells [1, 10]: 138 | Total cells [1, 10]: 150 | % healthy [1, 11]: 81.6% | Healthy cells [1, 11]: 80 | Total cells [1, 11]: 98 | promotion of growth and sprouting of neurons (neurons): at least the same extent as its 68 kilodalton parent protein | average GLA, % of the day 1 data ([6]; 1 mg/kg i.v. (femoral vein) at 1 hour after occlusion, saline control 225%): 85% | effect on GLA (in words) ([6]; i.v. injection at 10 minutes after the ischemic event, n=3): blocked the development of enhanced GLA | GLA, % of own GLA one day prior to surgery ([6]; icv delivery by Alzet pump, 1 milligram per ml, 7 days pre- and 7 days post-ischemia, n=4): 80% | GLA value ([6]; subcutaneous (s.c.) injection at 1 hour after the surgery): 200%
